Data set [1] concerns human embryonic kidney cells (293T). The data set can be described thus: MTT assay on non-cancerous cells, 293T. The format is cell-based. The conditions noted are these: 24 h; for toxicity to 293T cells (in words): low toxicity when the IC50 value exceeded 50 μM, MTT. The source says: (§1) Five peptides were randomly selected from the candidate ACPs and synthesized by Changzhou Kanglong Biotech Ltd (Changzhou, China). using 9-fuorenylmethoxy carbonyl (FMOC) solid phase synthesis technology. The synthetic peptide was identified by mass spectrometry (MS), and the purity >95% by high performance liquid chromatography (HPLC). Human breast cancer cell line (MCF7), lung cancer cell line (A549), cervical cancer cell line (HeLa), colorectal adenocarcinoma cell line (LoVo) and human embryonic kidney cells (293T) were preserved in our laboratory. At 37 °C under 5/95% CO2/air condition, all cell lines were cultured in Dulbecco’s modified Eagle medium (DMEM) supplemented with 10% (v/v) fetal bovine serum (FBS, Gibco, Carlsbad, CA, USA) and 1% (v/v) penicillin/streptomycin (Sangon Biotech, Shanghai, China).
(§2) Human tumor cell lines MCF7, A549, HeLa and LoVo were used as experimental materials to detect the anticancer activity of peptides by MTT assay. In addition, human embryonic kidney cells 293T were also included in the experiment to examine the safety of the peptide against non-cancerous cells. […] Untreated cells as negative control group incubated with corresponding medium for 24 h. Subsequently, 10 uL, 5 mg/mL MTT (Sangon Biotech, Shanghai, China) solution was added to each well and incubated for 4 h at 37 °C. After the medium was discarded, 150 μL DMSO was added to each well for 10 min to dissolve formazan crystals. Absorbance was measured at 570 and 630 nm using a multiwall plate reader and the inhibition rate was expressed as the mean ± standard deviation (SD) of the triplicate data.

The test system of data set [2] is cervical cancer cell line (HeLa). The format is cell-based, human. The conditions noted are these: 24 h.
From the text: as §1, §2

For data set [3], the system named is lung cancer cell line (A549). In kind it is cell-based, human. The following applies: for IC50 / killing effects on lung cancer cell A549 (in words): 24 h; for selective killing effect on lung cancer A549 cells relative to 293T cells (in words): A549 versus 293T, MTT IC50; for killing effects on lung cancer cell A549 (in words): MTT, anticancer activity when IC50 less than 50 μM.
From the text: as §1, §2

The test system of data set [4] is Human breast cancer cell line (MCF7). The format is cell-based. The following applies: 24 h.
From the text: as §1, §2

Data set [5] deals with colorectal adenocarcinoma cell line (LoVo). The format is cell-based, human. The following applies: 24 h.
From the text: as §1, §2

Bridge positions count the residues as written; N and C are the ends. Peptide text beside a SMILES is read from it.

On to `CC[C@H](C)[C@@H]1NC(=O)[C@H](CCCCN)NC(=O)[C@@H](NC(=O)[C@H](CCCCN)NC(=O)[C@H](CC(C)C)NC(=O)CNC(=O)[C@H](CCC(=O)O)NC(=O)[C@H](CC(C)C)NC(=O)[C@H](CCCCN)NC(=O)CNC(=O)[C@H](C)NC(=O)[C@@H](NC(=O)[C@H](CC(=O)O)NC(=O)[C@H](CCCCN)NC(=O)[C@H](C)NC(=O)[C@H](C)NC(=O)CNC(=O)[C@H](CCCCN)NC(=O)[C@H](CC(C)C)NC(=O)[C@@H](NC(=O)[C@H](CC(=O)O)NC(=O)[C@H](CC(C)C)NC(=O)[C@H](Cc2ccccc2)NC(=O)[C@H](CC(C)C)NC(=O)CN)[C@@H](C)O)C(C)C)CSSC[C@@H](C(=O)N[C@@H](CCCCN)C(=O)N[C@@H](CC(C)C)C(=O)N2CCC[C@H]2C(=O)O)NC(=O)CNC(=O)[C@H]([C@@H](C)O)NC1=O` [RANATUERIN2] (H-GLFLDTLKGAAKDVAGKLEGLKCKITGCKLP-OH; disulfide 23-28; N-terminus and C-terminus assumed), for which the IC50 in data set [1], in data set [2], in data set [3] and in data set [4] was over 128 µM throughout. Besides, the “toxicity to 293T cells (in words)” value in data set [1] is on record as “low toxicity”.
Consider `CC[C@H](C)[C@H](NC(=O)CN)C(=O)N[C@@H](CC(C)C)C(=O)N[C@@H](CO)C(=O)N[C@@H](CO)C(=O)N[C@H](C(=O)N[C@@H](CCCCN)C(=O)NCC(=O)N[C@H](C(=O)N[C@@H](C)C(=O)N[C@@H](CCCCN)C(=O)NCC(=O)N[C@H](C(=O)N[C@@H](C)C(=O)N[C@@H](CCCCN)C(=O)N[C@@H](CC(N)=O)C(=O)N[C@H](C(=O)N[C@@H](C)C(=O)N[C@@H](C)C(=O)N[C@@H](CCC(N)=O)C(=O)N[C@@H](CC(C)C)C(=O)N[C@@H](CC(C)C)C(=O)N[C@@H](CC(=O)O)C(=O)N[C@H](C(=O)N[C@@H](CC(C)C)C(=O)N[C@@H](CCCCN)C(=O)N[C@H]1CSSC[C@@H](C(=O)O)NC(=O)CNC(=O)[C@H]([C@@H](C)O)NC(=O)[C@H]([C@@H](C)CC)NC(=O)[C@H](CCCCN)NC1=O)[C@@H](C)O)C(C)C)C(C)C)C(C)C)[C@@H](C)CC` [RANATUERIN-2Lb] (H-GILSSIKGVAKGVAKNVAAQLLDTLKCKITGC-OH; disulfide 27-32; N-terminus and C-terminus assumed), for which the IC50 (usually the concentration that inhibits the measured activity by half) was found to be 63.2 µM in data set [1]; 37.2 µM in data set [2]; 59.8 µM in data set [5]; 15.3 µM in data set [3]; 45.2 µM in data set [4]. For the same compound, the “toxicity to 293T cells (in words)” value in data set [1] was “low toxicity”. The “selective killing effect on lung cancer A549 cells relative to 293T cells (in words)” value in data set [3] is “selective killing effect”. Moreover, in data set [3], the “killing effects on lung cancer cell A549 (in words)” value (“killing effects” for short) is “effective killing effects”.
On to `CC[C@H](C)[C@H](NC(=O)CN)C(=O)N[C@@H](Cc1ccccc1)C(=O)N[C@@H](CC(=O)O)C(=O)N[C@H](C(=O)N[C@H](C(=O)N[C@@H](CCCCN)C(=O)NCC(=O)N[C@H](C(=O)N[C@@H](CC(C)C)C(=O)N[C@@H](CCCCN)C(=O)NCC(=O)N[C@H](C(=O)NCC(=O)N[C@@H](CCCCN)C(=O)N[C@@H](CC(N)=O)C(=O)N[C@H](C(=O)N[C@@H](C)C(=O)NCC(=O)N[C@@H](CO)C(=O)N[C@@H](CC(C)C)C(=O)N[C@@H](CC(C)C)C(=O)N[C@@H](CCC(=O)O)C(=O)N[C@@H](CCC(N)=O)C(=O)N[C@@H](CC(C)C)C(=O)N[C@@H](CCCCN)C(=O)N[C@H]1CSSC[C@@H](C(=O)O)NC(=O)CNC(=O)CNC(=O)[C@H](CO)NC(=O)[C@H](CC(C)C)NC(=O)[C@H](CCCCN)NC1=O)C(C)C)C(C)C)C(C)C)C(C)C)C(C)C` [Brevinin-2DYd] (H-GIFDVVKGVLKGVGKNVAGSLLEQLKCKLSGGC-OH; disulfide 27-33; N-terminus and C-terminus assumed), for which the concentration for half-maximal inhibition (IC50) in data set [1] was 5.83 µM; in data set [2], 19.7 µM; in data set [5], 8.05 µM; in data set [3], 2.98 µM; in data set [4] it was 25.7 µM. Also, in data set [1], the “toxicity to 293T cells (in words)” value is “highest toxicity”. Moreover, the “killing effects” value in data set [3] is “effective killing effects”.
With `CC(C)C[C@H](NC(=O)CN)C(=O)N[C@@H](Cc1ccccc1)C(=O)N[C@@H](CC(=O)O)C(=O)N[C@H](C(=O)N[C@H](C(=O)N[C@@H](CCCCN)C(=O)NCC(=O)N[C@H](C(=O)N[C@@H](CC(C)C)C(=O)N[C@@H](CCCCN)C(=O)NCC(=O)N[C@@H](C)C(=O)NCC(=O)N[C@@H](CCCCN)C(=O)N[C@@H](CC(N)=O)C(=O)N[C@H](C(=O)N[C@@H](C)C(=O)NCC(=O)N[C@@H](CO)C(=O)N[C@@H](CC(C)C)C(=O)N[C@@H](CC(C)C)C(=O)N[C@@H](CCC(=O)O)C(=O)N[C@@H](CCC(N)=O)C(=O)N[C@@H](CC(C)C)C(=O)N[C@@H](CCCCN)C(=O)N[C@H]1CSSC[C@@H](C(=O)O)NC(=O)CNC(=O)CNC(=O)[C@H](CO)NC(=O)[C@H](CC(C)C)NC(=O)[C@H](CCCCN)NC1=O)C(C)C)C(C)C)C(C)C)C(C)C` [Brevinin-2DYb] (H-GLFDVVKGVLKGAGKNVAGSLLEQLKCKLSGGC-OH; disulfide 27-33; N-terminus and C-terminus assumed), the IC50 was found to be 50.7 µM in data set [1]; 23.3 µM in data set [2]; 35.1 µM in data set [5]; 24 µM in data set [3]; 37.8 µM in data set [4]. Moreover, the “toxicity to 293T cells (in words)” value in data set [1] is reported as “low toxicity”. In addition, in data set [3], the “selective killing effect on lung cancer A549 cells relative to 293T cells (in words)” value is reported as “selective killing effect”. Moreover, in data set [3], the “killing effects” value is listed as “effective killing effects”.

Source of the values: PMC8198792, “Prediction of Anticancer Peptides with High Efficacy and Low Toxicity by Hybrid Model Based on 3D Structure of Peptides” (International Journal of Molecular Sciences, 2021).
